Here are results for five compounds from US9079913B2, “Spiro-oxindole MDM2 antagonists” (The Regents of the University of Michigan, priority 2009, dated 2015).

The half-life is how long it takes for the measured level to halve. Read a low half-life as fast loss. In general, Vz refers to a proportionality between amount in the body and measured concentration, not a real space.

A short description of data set [1]: In vitro microsomal stability, human. In kind it is in vitro ADME.
Data set [2] is described as follows: In vitro microsomal stability, rat. In kind it is in vitro ADME.
For data set [3], the system named is SJSA-1 xenograft tumors. Description: In vivo efficacy, SJSA-1 xenograft model (tumor volume). Also on record: species or system C.B-17 SCID mice. The note with it: PO 100 mg/kg; for % Tumor Growth Inhib. T/C Control 750 mm^3 D24: Exp. No. 2, SJSA-1 xenograft.
Data set [4] relates to Isogenic HCT-116 colon cancer cell lines. Description: cells. In kind it is cell-based.
Procedure: Cells were seeded in 96-well flat bottom cell culture plates at a density of 2−3×10^3 cells/well with compounds and incubated for 4 days.
The test system of data set [5] is cancer cell lines with wild-type p53 / mutated or deleted p53 (ATCC). Description: Cell growth assay (WST-8), other cancer cell lines. In kind it is cell-based. For orientation: Formazan colour is commonly taken as a measure of viable cells.
A short description of data set [6]: Animal weight in SJSA-1 xenograft studies. The note with it: SJSA-1 xenograft mice. In kind it is in vivo, C.B-17 SCID mice. Here is the method: The size of tumors growing in the mice was measured in two dimensions using calipers. Tumor volume (mm^3)=(A×B2)/2 where A and B are the tumor length and width (in mm), respectively. During treatment, tumor volume and body weight was measured three times a week. After the treatment was stopped, tumor volume (FIGS. 7, 9, 11, and 36) and body weight (FIGS. 8, 10, 12, and 37) was measured at least once a week. Mice were kept for an additional 60 days for further observation of tumor growth and toxicity.
Before treatment began, tumors were allowed to grow to 60-140 mm^3 in volume, at which point the blood vessel supplies to the tumor should have been established. Mice with tumors within acceptable size range were randomized into treatment groups of 8 mice for experimental compounds and 10 mice for the Control group. Experimental compounds were given orally, once per day for 2-3 weeks. The Control group received vehicle alone (10% PEG 400: 3% Cremophor: 87% PBS).

Data set [7] can be described thus: Pharmacokinetic studies in rats. In kind it is in vivo, rat. The note with it: for oral bioavailability / oral pharmacokinetics in rats (in words): oral dosing. As for the experimental part:
Pharmacokinetic studies on MDM2 inhibitors were carried out in rat. For comparison, the MDM2 inhibitor, AT-219, was also studied.

For data set [8], the target named is recombinant human His-tagged MDM2 protein (residues 1-118) (Homo sapiens (Human), UniProt Q00987). Description: Fluorescence-polarization MDM2 binding assay.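 On all read-outs here: fluorescence polarization read after three hours of incubation in potassium phosphate buffer containing bovine gamma globulin and Triton X-100.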 The note with it: for IC50: Table 19A, FP binding assay, read-out: MDM2 IC50.
Procedure: The assay was performed in the buffer: 100 mM potassium phosphate, pH 7.5; 100 μg/mL bovine gamma globulin; 0.02% sodium azide, 0.01% Triton X-100) and the polarization values were measured after 3 h of incubation using an ULTRA READER (Tecan U.S. Inc., Research Triangle Park, N.C.). […] The Kd value was calculated using the equation: Kd value=IC50−L0/2.
The polarization values were measured after 3 h of incubation. […] Curve fitting was performed using [sequence] PRISM software (GraphPad Software, Inc., San Diego, Calif.). […] Compounds shown in Tables 19A-D as the free base were tested either as the free base or as the CF3CO2H (TFA) or HCl salt.
Where [9] appears, read: Homo sapiens, HCT-116, read-out: HCT-116 (p53 wild-type) IC50.
Setting [10] is: Homo sapiens, LNCaP, read-out: LNCAP (p53 wild-type) IC50.
Setting [11] is: Homo sapiens, SJSA-1, read-out: SJSA-1 (p53 wild-type) IC50.
Setting [12] is: human liver microsomes, NADPH, 0 min.
The mark [13] stands for this setting: human liver microsomes, NADPH, 5 min.
The mark [14] stands for this setting: human liver microsomes, NADPH, 10 min.
Setting [15] is: human liver microsomes, NADPH, 15 min.
Setting [16] is: human liver microsomes, NADPH, 30 min.
The mark [17] stands for this setting: human liver microsomes, NADPH, 45 min.
Where [18] appears, read: human liver microsomes, NADPH, 60 min.
[19] abbreviates: rat liver microsomes, NADPH, 0 min.
The mark [20] stands for this setting: rat liver microsomes, NADPH, 5 min.
Where [21] appears, read: rat liver microsomes, NADPH, 10 min.
Where [22] appears, read: rat liver microsomes, NADPH, 15 min.
Where [23] appears, read: rat liver microsomes, NADPH, 30 min.
[24] abbreviates: rat liver microsomes, NADPH, 45 min.
Setting [25] is: rat liver microsomes, NADPH, 60 min.
[26] abbreviates: rat, IV, 5 mg/kg, plasma, parent compound.
[27] abbreviates: Homo sapiens, HCT-116, read-out: HCT-116 (p53-/-) IC50, Table 19A, HCT-116 p53-/-, cell growth.
Setting [28] is: Homo sapiens, HCT-116, read-out: HCT-116 (p53 wild-type) IC50, Table 19A, HCT-116 p53 wild-type, cell growth.
Where [29] appears, read: Homo sapiens, SJSA-1, Table 19A, SJSA-1 cells, p53 wild-type, cell growth, read-out: SJSA-1 (p53 wild-type) IC50.

Read-outs that look alike come from different tables or passages of the source.

recombinant human His-tagged MDM2 protein (residues 1-118), sequence (Q00987 1-118): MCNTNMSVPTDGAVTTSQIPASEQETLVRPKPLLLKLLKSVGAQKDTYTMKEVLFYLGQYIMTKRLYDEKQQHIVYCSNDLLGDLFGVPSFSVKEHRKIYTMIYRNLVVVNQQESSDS

For the compound `CC(C)(C)C[C@H]1N[C@@H](C(=O)N[C@H]2C[C@@H](O)C2)[C@H](c2cccc(Cl)c2F)[C@@]12C(=O)Nc1cc(Cl)ccc12` (stereo in doubt) [MI-519-63], the “% of compound remaining when incubated in human liver microsomes with NADPH” value was found to be 100.00% in data set [1] (0 min); 77.75% in data set [1] (5 min); 59.66% in data set [1] (10 min); 50.42% in data set [1] (15 min); 31.21% in data set [1] (30 min); 26.74% in data set [1] (45 min). The “% of compound remaining when incubated in human liver microsomes with NADPH” value in data set [1] (60 min) is 21.5%. The “microsomal stability (in words)” value in data set [1] (human liver microsomes) and in data set [2] (rat liver microsomes) was “comparable microsomal stability to MI-219” in each case. Further, the “% of compound remaining when incubated in rat liver microsomes with NADPH” value came to 100% in data set [2] (0 min); 66.01% in data set [2] (5 min); 53.79% in data set [2] (10 min); 46.44% in data set [2] (15 min); 29.41% in data set [2] (30 min); 27.72% in data set [2] (45 min). Further, in data set [2] (60 min), the “% of compound remaining when incubated in rat liver microsomes with NADPH” value is given as 23.28%. Also, the “% Tumor Growth Inhib. T/C Control 750 mm^3 D24” value in data set [3] is 0.0%. Also, the IC50 in data set [4] (setting [9]) stood at 2000 nM; in data set [5] (setting [10]) it was 2300 nM; in data set [5] (setting [11]), 2100 nM. In addition, the “weight loss in the animals (in words)” value in data set [6] is “without significant weight loss”.
For `CC(C)(C)C[C@H]1N[C@@H](C(=O)N[C@H]2CC[C@@H](O)C2)[C@H](c2cccc(Cl)c2F)[C@@]12C(=O)Nc1cc(Cl)ccc12` [MI-519-51], the “microsomal stability (in words)” value in data set [1] (human liver microsomes) and in data set [2] (rat liver microsomes) was “inferior stability to MI-219” each time. Moreover, the “% of compound remaining when incubated in human liver microsomes with NADPH” value was determined as 100.00% in data set [1] (setting [12]); 36.05% in data set [1] (setting [13]); 9.88% in data set [1] (setting [14]); 3.95% in data set [1] (setting [15]); 0.00% in data set [1] (setting [16]); 0.00% in data set [1] (setting [17]). Further, the “% of compound remaining when incubated in human liver microsomes with NADPH” value in data set [1] (setting [18]) worked out at 0.00%. Moreover, the half-life in data set [1] (human, liver microsomes, human liver microsomes with NADPH) turned out to be 3.15 min; in data set [2] (rat, liver microsomes, rat liver microsomes with NADPH), 2.18 min. Further, the “% of compound remaining when incubated in rat liver microsomes with NADPH” value in data set [2] (setting [19]) came out at 100.00%; in data set [2] (setting [20]), 12.77%; in data set [2] (setting [21]) it was 2.84%; in data set [2] (setting [22]), 0.83%; in data set [2] (setting [23]), 0.00%; in data set [2] (setting [24]), 0.00%. Moreover, the “% of compound remaining when incubated in rat liver microsomes with NADPH” value in data set [2] (setting [25]) is recorded as 0.00%. Besides, in data set [3] (Exp. No. 1, SJSA-1 xenograft, D27), the “% Tumor Growth Inhib. T/C Control 750 mm^3 D27” value worked out at 34.0%. Besides, the IC50 in data set [4] (Homo sapiens, HCT-116, read-out: HCT-116 (p53-/-) IC50) was 13400 ± 800 nM; in data set [4] (setting [9]), 600 ± 300 nM; in data set [5] (setting [10]) it was 600 ± 200 nM; in data set [5] (Homo sapiens, PC-3, read-out: PC-3 (deleted p53) IC50), 8200 ± 2500 nM; in data set [5] (setting [11]), 600 ± 200 nM. For the same compound, the CLz in data set [7] (setting [26]) is 75 mL/min/kg. In addition, the Vd in data set [7] (rat, plasma, iv, 5 mg/kg, rat, IV, 5 mg/kg, plasma, parent compound, read-out: Vz) was determined as 7.5 L/kg. For the same compound, in data set [7] (rats, intravenous and oral routes of dosing), the “pharmacokinetic profile (in words)” value is “inferior overall PK parameters to MI-219”.
For the compound `CC(C)(C)C[C@H]1N[C@@H](C(=O)NC2CCC(NS(C)(=O)=O)CC2)[C@H](c2cccc(Cl)c2F)[C@@]12C(=O)Nc1cc(Cl)ccc12` (some centres unmarked) [MI-772], the “microsomal stability (in words)” value in data set [1] (human liver microsomes) and in data set [2] (rat liver microsomes) was “very stable” each time. Besides, the t1/2 in data set [1] (human liver microsomes with NADPH) and in data set [2] (rat liver microsomes with NADPH) was >60 min each time. The “% of compound remaining when incubated in human liver microsomes with NADPH” value was 100.00% in data set [1] (setting [12]); 95.37% in data set [1] (setting [13]); 86.87% in data set [1] (setting [14]); 82.24% in data set [1] (setting [15]); 77.91% in data set [1] (setting [16]); 63.28% in data set [1] (setting [17]). Besides, the “% of compound remaining when incubated in human liver microsomes with NADPH” value in data set [1] (setting [18]) stood at 56.87%. Moreover, the “% of compound remaining when incubated in rat liver microsomes with NADPH” value stood at 100.00% in data set [2] (setting [19]); 93.46% in data set [2] (setting [20]); 91.15% in data set [2] (setting [21]); 89.04% in data set [2] (setting [22]); 88.27% in data set [2] (setting [23]); 78.65% in data set [2] (setting [24]). Besides, the “% of compound remaining when incubated in rat liver microsomes with NADPH” value in data set [2] (setting [25]) is 75.96%. Besides, the “% Tumor Growth Inhib. T/C Control 750 mm^3 D24” value in data set [3] amounted to 71.1%. Further, the IC50 is > 5000 nM in data set [4] (read-out: HCT-116 (p53-/-) IC50, Table 19A, HCT-116 p53-/-, cell growth); < 1000 nM in data set [4] (read-out: HCT-116 (p53 wild-type) IC50, Table 19A, HCT-116 p53 wild-type, cell growth); < 1000 nM in data set [8]; < 1000 nM in data set [5] (Table 19A, LNCAP cells, p53 wild-type, cell growth, read-out: LNCAP (p53 wild-type) IC50); > 5000 nM in data set [5] (Table 19A, PC-3 cells, deleted p53, cell growth, read-out: PC-3 (deleted p53) IC50); < 1000 nM in data set [5] (Table 19A, SJSA-1 cells, p53 wild-type, cell growth, read-out: SJSA-1 (p53 wild-type) IC50). For the same compound, the “binding to MDM2 (in words)” value in data set [8] (human MDM2 protein) is listed as “high affinities”. For the same compound, in data set [7] (rats), the “oral bioavailability / oral pharmacokinetics in rats (in words)” value was “modest oral bioavailability”. In addition, the CLz in data set [7] (setting [26]) turned out to be 16.7 mL/min/kg. Besides, the volume of distribution (Vz) in data set [7] (setting [26]) is 10.9 L/kg. Further, in data set [7] (rats, intravenous and oral), the “half-life in rats (in words)” value is recorded as “long plasma half-life”. Besides, the “relative potency vs epimer, binding and cellular studies (in words)” value in data set [5] is reported as “several times more potent than MI-771”. In data set [5] (cancer cell lines with wild-type p53), the “cell growth inhibition (in words)” value was “effectively inhibit cell growth”.
For the compound `C[C@H](N)C(=O)OC1CCC(NC(=O)[C@@H]2N[C@H](CC(C)(C)C)[C@]3(C(=O)Nc4cc(Cl)ccc43)[C@H]2c2cccc(Cl)c2F)CC1` (some centres unmarked) [MI-774], the “% Tumor Growth Inhib. T/C Control 750 mm^3 D24” value in data set [3] was 21.4%. Further, the IC50 is 5600 nM in data set [4] (setting [27]); 300 ± 100 nM in data set [4] (setting [28]); < 100 nM in data set [8]; 300 nM in data set [5] (Homo sapiens, LNCaP, Table 19A, LNCAP cells, p53 wild-type, cell growth, read-out: LNCAP (p53 wild-type) IC50); 300 ± 100 nM in data set [5] (setting [29]). Moreover, the “oral bioavailability / oral pharmacokinetics in rats (in words)” value in data set [7] (rats) is “good oral bioavailability”.
Turning to `CCNC(=O)N1CCC(NC(=O)[C@@H]2N[C@H](CC(C)(C)C)[C@]3(C(=O)Nc4cc(Cl)ccc43)[C@H]2c2cccc(Cl)c2F)CC1` [MI-781], the “% Tumor Growth Inhib. T/C Control 750 mm^3 D24” value in data set [3] came out at 75.5%. Further, the IC50 in data set [4] (setting [27]) was 10100 nM; in data set [4] (setting [28]) it was 400 nM; in data set [8], < 100 nM; in data set [5] (setting [29]) it was 700 nM.
